Assay results: PubChem BioAssay AID248 (DTP/NCI, 2004)
“And” between values parts separate entries of the source, which are not always exact repeats. Identical values can stand only once. Inconclusive results and toxic doses are left out. Cut-off read from the data, not from the text of the source: active = T/C of 150% or more; inactive = T/C below 125%.

Tested on: L1210 leukemia ip in BDF1 mice, survival T/C
Assay: NCI In Vivo Anticancer Drug Screen. Data for tumor model L1210 Leukemia (intraperitoneal) in B6D2F1 (BDF1) mice
Conditions: endpoint: mean survival time, higher = longer survival
Outline: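 Transplanted-tumor mice were given test agent; controls received vehicle only. Survival readings from the two groups were divided (treated over control).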

[1] = dose: 50.0 mg/kg/injection, schedule: Q01DX001 (ip), vehicle: carboxymethylcellulose (CMC)
[2] = dose: 100.0 mg/kg/injection, schedule: Q01DX001 (ip), vehicle: carboxymethylcellulose (CMC)
[3] = dose: 100.0 mg/kg/injection, schedule: Q01DX009 (ip), vehicle: saline with Tween-80
[4] = dose: 200.0 mg/kg/injection, schedule: Q01DX009 (ip), vehicle: saline with Tween-80
[5] = dose: 400.0 mg/kg/injection, schedule: Q01DX001 (ip), vehicle: carboxymethylcellulose (CMC)
[6] = dose: 400.0 mg/kg/injection, schedule: Q01DX009 (ip), vehicle: saline with Tween-80
[7] = dose: 100.0 mg/kg/injection, schedule: Q04DX003 (ip), vehicle: saline
[8] = dose: 100.0 mg/kg/injection, schedule: Q01DX001 (ip), vehicle: saline with Tween-80
[9] = dose: 100.0 mg/kg/injection, schedule: Q04DX002 (ip), vehicle: saline with Tween-80
[10] = dose: 100.0 mg/kg/injection, schedule: Q04DX003 (ip), vehicle: saline with Tween-80
[11] = dose: 200.0 mg/kg/injection, schedule: Q01DX001 (ip), vehicle: saline with Tween-80
[12] = dose: 200.0 mg/kg/injection, schedule: Q04DX002 (ip), vehicle: saline with Tween-80
[13] = dose: 200.0 mg/kg/injection, schedule: Q04DX003 (ip), vehicle: saline with Tween-80
[14] = dose: 400.0 mg/kg/injection, schedule: Q01DX001 (ip), vehicle: saline with Tween-80
[15] = dose: 400.0 mg/kg/injection, schedule: Q04DX002 (ip), vehicle: saline with Tween-80
[16] = dose: 400.0 mg/kg/injection, schedule: Q04DX003 (ip), vehicle: saline with Tween-80

Measured: T/C

O=C1C(c2ccccc2)=c2c(c3ccccc3c3ccccc23)=C1c1ccccc1
inactive: [1] 103 % of control and 100 % of control | [2] 100 % of control and 97 % of control | [3] 96 % of control | dose: 200.0 mg/kg/injection, schedule: Q01DX001 (ip), vehicle: carboxymethylcellulose (CMC) 100 % of control and 97 % of control | [4] 90 % of control | [5] 94 % of control | [6] 93 % of control

Cc1nc(C)c(I)s1
inactive: dose: 100.0 mg/kg/injection, schedule: Q01DX009 (ip), vehicle: Klucel (hydroxypropylcellulose) (HPC) 93 % of control | dose: 100.0 mg/kg/injection, schedule: Q04DX003 (ip), vehicle: Klucel (hydroxypropylcellulose) (HPC) 98 % of control | dose: 200.0 mg/kg/injection, schedule: Q01DX009 (ip), vehicle: Klucel (hydroxypropylcellulose) (HPC) 97 % of control | dose: 200.0 mg/kg/injection, schedule: Q04DX003 (ip), vehicle: Klucel (hydroxypropylcellulose) (HPC) 93 % of control | dose: 400.0 mg/kg/injection, schedule: Q01DX009 (ip), vehicle: Klucel (hydroxypropylcellulose) (HPC) 94 % of control | dose: 400.0 mg/kg/injection, schedule: Q04DX003 (ip), vehicle: Klucel (hydroxypropylcellulose) (HPC) 104 % of control

Fc1nc(F)nc(F)n1
inactive: dose: 12.0 mg/kg/injection, schedule: Q01DX009 (ip), vehicle: Klucel (hydroxypropylcellulose) (HPC) 89 % of control | dose: 25.0 mg/kg/injection, schedule: Q01DX009 (ip), vehicle: Klucel (hydroxypropylcellulose) (HPC) 94 % of control | dose: 50.0 mg/kg/injection, schedule: Q01DX009 (ip), vehicle: Klucel (hydroxypropylcellulose) (HPC) 112 % of control | [7] 90 % of control | dose: 200.0 mg/kg/injection, schedule: Q04DX003 (ip), vehicle: saline 100 % of control | dose: 400.0 mg/kg/injection, schedule: Q04DX003 (ip), vehicle: saline 102 % of control

Nc1nc(-c2ccccc2)c(CCCOc2ccc([N+](=O)[O-])cc2)c(=O)[nH]1
inactive: [1] 88 % of control | [2] 91 % of control | [5] 88 % of control

COc1ccc(CCNC(=O)c2ccccc2N)cc1OC
inactive: [8] 97 % of control | [3] 90 % of control and 91 % of control | [9] 98 % of control | [10] 105 % of control | [11] 98 % of control | [4] 95 % of control and 109 % of control | [12] 98 % of control | [13] 92 % of control | [14] 106 % of control | [6] 90 % of control and 91 % of control | [15] 95 % of control | [16] 95 % of control

Cc1cc(N)c(C)c2ccncc12
inactive: dose: 5.0 mg/kg/injection, schedule: Q01DX001 (ip), vehicle: saline 103 % of control

O=c1oc(Cl)c(Cl)c(Cl)c1Cl
inactive: dose: 2.2 mg/kg/injection, schedule: Q01DX Z (ip), vehicle: methylcellulose (MC) 93 % of control

C/C(=N/O)c1ccc(/C(C)=N/O)cc1
inactive: dose: 75.0 mg/kg/injection, schedule: Q01DX009 (ip), vehicle: saline with Tween-80 104 % of control | [10] 95 % of control | dose: 150.0 mg/kg/injection, schedule: Q01DX009 (ip), vehicle: saline with Tween-80 107 % of control | [4] 107 % of control | [13] 96 % of control | [16] 95 % of control

CCCCNC(=O)c1cccc2c1-c1ccccc1C2=O
inactive: dose: 100.0 mg/kg/injection, schedule: Q01DX001 (ip), vehicle: other 88 % of control | dose: 200.0 mg/kg/injection, schedule: Q01DX001 (ip), vehicle: other 88 % of control | dose: 400.0 mg/kg/injection, schedule: Q01DX001 (ip), vehicle: other 96 % of control

CCOC(=O)/C(C#N)=C/c1cccn1Cc1cc2ccccc2c2ccccc12
inactive: dose: 25.0 mg/kg/injection, schedule: Q04DX002 (ip), vehicle: saline 111 % of control | dose: 50.0 mg/kg/injection, schedule: Q04DX002 (ip), vehicle: saline 111 % of control | dose: 100.0 mg/kg/injection, schedule: Q04DX002 (ip), vehicle: saline 105 % of control

CCOC(=O)CNC(N)=O
inactive: dose: 100.0 mg/kg/injection, schedule: Q01DX009 (ip), vehicle: saline 96 % of control | dose: 200.0 mg/kg/injection, schedule: Q01DX009 (ip), vehicle: saline 107 % of control | dose: 400.0 mg/kg/injection, schedule: Q01DX009 (ip), vehicle: saline 96 % of control

O=C(/C=C/c1ccccc1)NC(=S)NC1CCCCC1
inactive: dose: 50.0 mg/kg/injection, schedule: Q01DX009 (ip), vehicle: carboxymethylcellulose (CMC) 101 % of control and 102 % of control | dose: 50.0 mg/kg/injection, schedule: Q04DX003 (ip), vehicle: carboxymethylcellulose (CMC) 103 % of control | dose: 100.0 mg/kg/injection, schedule: Q01DX009 (ip), vehicle: carboxymethylcellulose (CMC) 97 % of control and 90 % of control | dose: 100.0 mg/kg/injection, schedule: Q04DX002 (ip), vehicle: carboxymethylcellulose (CMC) 100 % of control and 106 % of control | dose: 100.0 mg/kg/injection, schedule: Q04DX003 (ip), vehicle: carboxymethylcellulose (CMC) 96 % of control | dose: 200.0 mg/kg/injection, schedule: Q01DX009 (ip), vehicle: carboxymethylcellulose (CMC) 93 % of control and 91 % of control | dose: 200.0 mg/kg/injection, schedule: Q04DX002 (ip), vehicle: carboxymethylcellulose (CMC) 103 % of control and 91 % of control | dose: 200.0 mg/kg/injection, schedule: Q04DX003 (ip), vehicle: carboxymethylcellulose (CMC) 96 % of control | dose: 400.0 mg/kg/injection, schedule: Q04DX002 (ip), vehicle: carboxymethylcellulose (CMC) 87 % of control

Cc1c2ccccc2c(CSCCC(N)C(=O)O)c2ccccc12 (configuration not stated)
inactive: [3] 89 % of control | [4] 91 % of control | [6] 110 % of control

O=C(COc1ccc(Cl)cc1)Nc1ccc(I)cc1
inactive: dose: 100.0 mg/kg/injection, schedule: Q04DX002 (ip), vehicle: Klucel (hydroxypropylcellulose) (HPC) 92 % of control | dose: 200.0 mg/kg/injection, schedule: Q04DX002 (ip), vehicle: Klucel (hydroxypropylcellulose) (HPC) 100 % of control | dose: 400.0 mg/kg/injection, schedule: Q04DX002 (ip), vehicle: Klucel (hydroxypropylcellulose) (HPC) 96 % of control

O=C(/C=C/c1ccccc1)NC(=S)Nc1ccc(CCO)cc1
inactive: dose: 50.0 mg/kg/injection, schedule: Q01DX009 (ip), vehicle: saline with Tween-80 97 % of control and 111 % of control | [8] 100 % of control | [9] 96 % of control and 97 % of control | [10] 102 % of control | [11] 88 % of control | [12] 96 % of control and 101 % of control | [13] 100 % of control | [14] 90 % of control | [6] 93 % of control and 95 % of control | [15] 104 % of control | [16] 87 % of control

COc1cc(-c2ccc(Nc3ccccc3C(=O)O)c(OC)c2)ccc1N
inactive: dose: 15.0 mg/kg/injection, schedule: Q01DX Z (ip), vehicle: carboxymethylcellulose (CMC) 102 % of control | dose: 22.0 mg/kg/injection, schedule: Q01DX Z (ip), vehicle: carboxymethylcellulose (CMC) 117 % of control | dose: 23.0 mg/kg/injection, schedule: Q01DX Z (ip), vehicle: carboxymethylcellulose (CMC) 112 % of control | dose: 35.0 mg/kg/injection, schedule: Q01DX Z (ip), vehicle: carboxymethylcellulose (CMC) 111 % of control and 121 % of control | dose: 50.0 mg/kg/injection, schedule: Q01DX001 (ip), vehicle: saline 121 % of control | dose: 100.0 mg/kg/injection, schedule: Q01DX001 (ip), vehicle: saline 115 % of control | dose: 200.0 mg/kg/injection, schedule: Q01DX001 (ip), vehicle: saline 114 % of control

CCCCCCC(CCCCCC)c1ccccc1
inactive: [8] 90 % of control | [11] 93 % of control

C[S+](C)CCCCCC[S+](C)C
inactive: [7] 102 % of control
